In patent US20210235699A1, “Adjuvant Compositions Comprising a Tetramethylguanidine and a 4-Isothiazolin-3-One” (Lonza, LLC, priority 2018, published 2021):
Marks after values point to notes of the source that are not given here.

Key:
[1] = tested on: combined bacterial test inoculum: Acinetobacter calcoaceticus, Escherichia coli, Pseudomonas aeruginosa, Enterobacter cloacae; assay: Bacterial challenge test (ASTM D2574-97, modified) in standard water based interior paint; type: cell-based; design: key to Streak plate rank, 1st inoculation 24 h / Streak plate rank, 1st inoculation 72 h / Streak plate rank, 2nd inoculation 72 h / Streak plate rank, 3rd inoculation 24 h: 0 = no growth; 1 = 1-5 Colony Forming Unit (cfu); 2 = 6-15 cfu; 3 = 16-30 cfu; 4 = 31-45 cfu; 5 = greater than 45 cfu; 5c = Confluent Growth; conditions: for Dilution plate count, 3rd inoculation 72 h / Streak plate rank, 3rd inoculation 24 h: inoculum 2.50%; for Streak plate rank, 2nd inoculation 72 h: inoculum 5%; for Streak plate rank, 1st inoculation 24 h / Streak plate rank, 1st inoculation 72 h: inoculum 10%
Method: (§1) The following bacterial and fungal challenge tests were performed to ascertain whether low concentrations of 4-isothiazolin-3-one biocidal active compounds, pyrithione, coumarin or guanidine adjuvant are sufficient to prevent microbial contamination of final products when deliberately inoculated with spoilage microbes.
(§2) The tests were performed according to ASTM standard D2574-97 (Standard Test Method for Resistance of Emulsion Paints in the Container to Attack by Microorganisms, ASTM International, West Conshohocken, Pa.), with higher inoculation volumes and frequency. A standard water based interior paint was used as the test substrate. Sample sizes of 20 g test substrate were used and the test samples were prepared in a sterile 30 mL square Nalgene bottle.
The bacteria were grown on pH 5, 7, or 9 Trypticase Soy Agar (TSA) lawns. The bacteria were grown individually on TSA and harvested by using sterile buffered water. The bacterial lawns were washed off with 30 mL of sterile water and an equal volume of each individual cell suspension was withdrawn from each serum bottle to make a combined cell suspension. Combined bacterial suspension were about 10^7 cfu/mL, which provides about 10^6 cfu/mL in the sample.
(§3) The following microorganisms were used for inoculation of the tested samples:
(§4) For the bacterial challenge testing, each sample was inoculated with a combined bacterial test inoculum volume equivalent to 10% of the total initial sample volume for the initial inoculation, 5% of the total initial sample volume for the second inoculation and 2.5% of the total initial sample volume for the third inoculation. Inoculum volumes for the fungal challenge tests were 2%, 1% and 0.5% of the total initial sample volume, respectively. Samples were inoculated every 96 h.
(§5) Concentrations of biocidal active compounds and adjuvants refer to the final concentration in the test samples prior to the first inoculation.
(§6) The efficacy of the added agent in each sample was monitored by means of a streak plate test after 24 hours (all inoculations) and 72 hours of inoculation (first and second inoculation). At 72 hours of the third inoculation performed, a dilution plate count was performed in order to obtain a quantitative measurement of contamination (cfu/mL). A count of less than 10 colony forming units per mL ([…]) is considered to show no measurable contamination. For the streak plate tests, bacterial samples were streaked on Tryptic Soy Agar (TSA) and incubated for 48 hours at 30° C. before reading. Fungal samples were streaked on Potato Dextrose Agar (PDA) and incubated for 5 days at 25° C. before reading.
(§7) The streak plates were ranked from 0-5c according to the degree of microbial growth:
(§8) The challenge tests were performed as described above.

[2] = tested on: fungal test inoculum: Aspergillus niger, Penicillium funiculosum, Candida albicans; assay: Fungal challenge test (ASTM D2574-97, modified) in standard water based interior paint; type: cell-based; design: key to Streak plate rank, 2nd inoculation 72 h / Streak plate rank, 1st inoculation 72 h / Streak plate rank, 1st inoculation 24 h / Streak plate rank, 2nd inoculation 24 h / Streak plate rank, 3rd inoculation 24 h: 0 = no growth; 1 = 1-5 Colony Forming Unit (cfu); 2 = 6-15 cfu; 3 = 16-30 cfu; 4 = 31-45 cfu; 5 = greater than 45 cfu; 5c = Confluent Growth; conditions: for Dilution plate count, 3rd inoculation 72 h / Streak plate rank, 3rd inoculation 24 h: inoculum 0.50%; for Streak plate rank, 2nd inoculation 72 h: inoculum 1%
Method: as §1, §2
Fungal lawns were grown on Potato Dextrose Agar (PDA) or Sabouraud Dextrose Agar (SAB). Individual fungal spore suspensions were harvested by adding 10 mL of sterile 0.05% Triton X to fungal lawns. The lawns were then gently agitated by rubbing a sterile swab on the lawn, being careful not to puncture the agar. The liquid was then aseptically transferred to a sterile bottle containing sterile glass beads. The top of the bottle was closed and the bottle shaken vigorously to break up any chunks in the suspension. The shaken spore suspension was decanted through sterile fibers into another sterile bottle. The decanted spore suspension was counted using a hemocytometer. Once the spore counts were determined, each suspension was diluted in order to obtain 10^6 spore/mL. Each diluted fungal suspension was poured into a sterile container.
as §3
as §4, with “Inoculum volumes for the fungal challenge tests were 2%, 1% and 0.5% of the total initial sample volume, respectively.” left out
as §5, §6, §7, §8

What does the source list for CCCCn1sc2ccccc2c1=O [BBIT, N-(n-butyl)-1,2-benzisothiazolin-3-one]?
Dilution plate count, 3rd inoculation 72 h ([1]; 25 ppm): 8.3 × 10^6 cfu/mL; Streak plate rank, 3rd inoculation 24 h ([1]; 25 ppm): 5c; Streak plate rank, 2nd inoculation 72 h ([1]; 25 ppm): 5c; Streak plate rank, 1st inoculation 24 h ([1]; 25 ppm): 5c; Streak plate rank, 1st inoculation 72 h ([1]; 25 ppm): 5c; Dilution plate count, 3rd inoculation 72 h ([1]; 50 ppm): 6.0 × 10^6 cfu/mL; Streak plate rank, 3rd inoculation 24 h ([1]; 50 ppm): 5c; Streak plate rank, 2nd inoculation 72 h ([1]; 50 ppm): 5c; Streak plate rank, 1st inoculation 24 h ([1]; 50 ppm): 5c; Streak plate rank, 1st inoculation 72 h ([1]; 50 ppm): 5c; Dilution plate count, 3rd inoculation 72 h ([1]; 100 ppm): 5.6 × 10^6 cfu/mL; Streak plate rank, 3rd inoculation 24 h ([1]; 100 ppm): 5c; Streak plate rank, 2nd inoculation 72 h ([1]; 100 ppm): 5c; Streak plate rank, 1st inoculation 24 h ([1]; 100 ppm): 5c; Streak plate rank, 1st inoculation 72 h ([1]; 100 ppm): 5c; Dilution plate count, 3rd inoculation 72 h ([2]; 25 ppm): 1.0 × 10^1 cfu/mL; Streak plate rank, 3rd inoculation 24 h ([2]; 25 ppm): 2 (2 = 6-15 cfu); Streak plate rank, 2nd inoculation 72 h ([2]; 25 ppm): 0; Streak plate rank, 1st inoculation 24 h ([2]; 25 ppm, inoculum added was 5%): 4* (4 = 31-45 cfu); Streak plate rank, 1st inoculation 72 h ([2]; 25 ppm, inoculum added was 5%): 1* (1 = 1-5 Colony Forming Unit (cfu)); Dilution plate count, 3rd inoculation 72 h ([2]; 50 ppm): <10 cfu/mL; Streak plate rank, 3rd inoculation 24 h ([2]; 50 ppm): 1 (1 = 1-5 Colony Forming Unit (cfu)); Streak plate rank, 2nd inoculation 72 h ([2]; 50 ppm): 0; Streak plate rank, 1st inoculation 24 h ([2]; 50 ppm, inoculum added was 5%): 3* (3 = 16-30 cfu); Streak plate rank, 1st inoculation 72 h ([2]; 50 ppm, inoculum added was 5%): 1* (1 = 1-5 Colony Forming Unit (cfu)); Dilution plate count, 3rd inoculation 72 h ([2]; 100 ppm): <10 cfu/mL; Streak plate rank, 3rd inoculation 24 h ([2]; 100 ppm): 1 (1 = 1-5 Colony Forming Unit (cfu)); Streak plate rank, 2nd inoculation 72 h ([2]; 100 ppm): 0; Streak plate rank, 1st inoculation 24 h ([2]; 100 ppm, inoculum added was 5%): 4* (4 = 31-45 cfu); Streak plate rank, 1st inoculation 72 h ([2]; 100 ppm, inoculum added was 5%): 1* (1 = 1-5 Colony Forming Unit (cfu))

How did the “Dilution plate count, 3rd inoculation 72 h” value ([1]; 500 ppm) turn out when O=c1ccc2ccccc2o1 [Coumarin] was run?
Its value is 3.5 × 10^6 cfu/mL.

And the “Streak plate rank, 3rd inoculation 24 h” value ([1]; 500 ppm)?
Its value is 5c.

What about the “Streak plate rank, 2nd inoculation 72 h” value ([1]; 500 ppm) of the same molecule?
The value was 5c.

What about the “Streak plate rank, 1st inoculation 24 h” value ([1]; 500 ppm) of the same molecule?
The value was 5c.

What about the “Streak plate rank, 1st inoculation 72 h” value ([1]; 500 ppm) of the same molecule?
The value was 5c.

What about the “bactericidal activity (in words)” value ([1]; used individually, Table 1) of the same molecule?
Its value is “no bactericidal activity”.

And the “Dilution plate count, 3rd inoculation 72 h” value ([2]; 500 ppm)?
Its value is 1.1 × 10^2 cfu/mL.

And the “Streak plate rank, 3rd inoculation 24 h” value ([2]; 500 ppm)?
The value was 4 (4 = 31-45 cfu).

And the “Streak plate rank, 2nd inoculation 72 h” value ([2]; 500 ppm)?
Its value is 2 (2 = 6-15 cfu).

What about the “Streak plate rank, 1st inoculation 24 h” value ([2]; 500 ppm, inoculum 2%) of the same molecule?
The value was 3 (3 = 16-30 cfu).

What about the “Streak plate rank, 1st inoculation 72 h” value ([2]; 500 ppm, inoculum 2%) of the same molecule?
The value was 3 (3 = 16-30 cfu).

With CCCCCCN(CCCCCC)C(=N)N.I [N,N-dihexylguanidine HI] as the molecule, how does the “effect of guanidine on bactericidal activity of 4-isothiazolin-3-ones (in words)” value ([1]; in combination with BIT and BBIT, Tables 3 and 5) read?
The value was “not achieved”.

And the “effect of guanidine on fungicidal activity of 4-isothiazolin-3-ones (in words)” value ([2]; in combination with BIT and BBIT, Tables 4 and 6)?
The value was “not achieved”.
